Assay results: ChEMBL document CHEMBL3885881, “DrugMatrix”

Organism: Rattus norvegicus
Test: DrugMatrix - Regimen: Daily Repeat
Format: toxicity, organism-based, Sprague-Dawley
Design: regimen Daily Repeat, gender Male, age 6-8 weeks
Conditions: in vivo, po, route oral GAVAGE, […]; for ABSOLUTE BASOPHIL / ABSOLUTE EOSINOPHIL / ABSOLUTE LYMPHOCYTE / ABSOLUTE MONOCYTE / ABSOLUTE SEGMENTED NEUTROPHIL / BASOPHIL / EOSINOPHIL / ERYTHROCYTE COUNT / HEMATOCRIT / HEMOGLOBIN / LEUKOCYTE COUNT / LYMPHOCYTE / MEAN CORPUSCULAR HEMOGLOBIN / MEAN CORPUSCULAR HEMOGLOBIN CONCENTRATION / MEAN CORPUSCULAR VOLUME / MONOCYTE / NEUTROPHIL / NUCLEATED RED BLOOD CELLS / PLATELET COUNT: tissue Blood; for ALANINE AMINOTRANSFERASE / ALBUMIN / ALKALINE PHOSPHATASE / ASPARTATE AMINOTRANSFERASE / BLOOD UREA NITROGEN / CARBON DIOXIDE / CHLORIDE / CHOLESTEROL / CREATINE PHOSPHOKINASE / CREATININE / GLUCOSE / LACTATE DEHYDROGENASE / LIPASE / PHOSPHORUS / POTASSIUM / SODIUM / TOTAL BILIRUBIN / TOTAL PROTEIN / URIC ACID: tissue Plasma
[1] = 0 mg/kg, 72 h, dose level Control, time 3 day
[2] = 0 mg/kg, 120 h, dose level Control, time 5 day
[3] = 50 mg/kg, 72 h, dose level Low, time 3 day

Oc1ncnc2[nH]ncc12 [ALLOPURINOL]
ABSOLUTE BASOPHIL [1]: 0 CELLS/uL
ABSOLUTE EOSINOPHIL [1]: 0 CELLS/uL
ABSOLUTE LYMPHOCYTE [1]: 14687.67 CELLS/uL
ABSOLUTE MONOCYTE [1]: 164 CELLS/uL
ABSOLUTE SEGMENTED NEUTROPHIL [1]: 1748.33 CELLS/uL
BASOPHIL [1]: 0%
EOSINOPHIL [1]: 0%
ERYTHROCYTE COUNT [1]: 5.51 x10E6/uL
HEMATOCRIT [1]: 33.68%
HEMOGLOBIN [1]: 13.4 G/DL
LEUKOCYTE COUNT [1]: 16.6 x10E3/uL
LYMPHOCYTE [1]: 88.83%
MEAN CORPUSCULAR HEMOGLOBIN [1]: 24.47 pg
MEAN CORPUSCULAR HEMOGLOBIN CONCENTRATION [1]: 39.82 G/DL
MEAN CORPUSCULAR VOLUME [1]: 61.23 fL
MONOCYTE [1]: 0.83%
NEUTROPHIL [1]: 10.33%
NUCLEATED RED BLOOD CELLS [1]: 0 /100WBC
PLATELET COUNT [1]: 1329.67 x10E3/uL
ALANINE AMINOTRANSFERASE [1]: 61.33 u/L
ALBUMIN [1]: 4.18 G/DL
ALKALINE PHOSPHATASE [1]: 332.5 u/L
ASPARTATE AMINOTRANSFERASE [1]: 98.33 u/L
BLOOD UREA NITROGEN [1]: 15.83 mg/dL
CARBON DIOXIDE [1]: 27.83 mmol/L
CHLORIDE [1]: 100 MEQ/L
CHOLESTEROL [1]: 76.17 mg/dL
CREATINE PHOSPHOKINASE [1]: 729.17 u/L
CREATININE [1]: 0.21 mg/dL
GLUCOSE [1]: 151.83 mg/dL
LACTATE DEHYDROGENASE [1]: 484.67 u/L
LIPASE [1]: 10 u/L
PHOSPHORUS [1]: 11.3 mg/dL
POTASSIUM [1]: 6.1 MEQ/L
SODIUM [1]: 142.9 MEQ/L
TOTAL BILIRUBIN [1]: 0.23 mg/dL
TOTAL PROTEIN [1]: 5.68 G/DL
URIC ACID [1]: 1.75 mg/dL
ABSOLUTE BASOPHIL [2]: 0 CELLS/uL
ABSOLUTE EOSINOPHIL [2]: 58.67 CELLS/uL
ABSOLUTE LYMPHOCYTE [2]: 15950.83 CELLS/uL
ABSOLUTE MONOCYTE [2]: 172.5 CELLS/uL
ABSOLUTE SEGMENTED NEUTROPHIL [2]: 2551.33 CELLS/uL
BASOPHIL [2]: 0%
EOSINOPHIL [2]: 0.33%
ERYTHROCYTE COUNT [2]: 5.5 x10E6/uL
HEMATOCRIT [2]: 34.05%
HEMOGLOBIN [2]: 13.42 G/DL
LEUKOCYTE COUNT [2]: 18.73 x10E3/uL
LYMPHOCYTE [2]: 84.5%
MEAN CORPUSCULAR HEMOGLOBIN [2]: 24.42 pg
MEAN CORPUSCULAR HEMOGLOBIN CONCENTRATION [2]: 39.42 G/DL
MEAN CORPUSCULAR VOLUME [2]: 61.97 fL
MONOCYTE [2]: 1%
NEUTROPHIL [2]: 14.17%
NUCLEATED RED BLOOD CELLS [2]: 0.33 /100WBC
PLATELET COUNT [2]: 1143.17 x10E3/uL
ALANINE AMINOTRANSFERASE [2]: 57 u/L
ALBUMIN [2]: 4.17 G/DL
ALKALINE PHOSPHATASE [2]: 347.33 u/L
ASPARTATE AMINOTRANSFERASE [2]: 93.67 u/L
BLOOD UREA NITROGEN [2]: 15.67 mg/dL
CARBON DIOXIDE [2]: 27.17 mmol/L
CHLORIDE [2]: 104.33 MEQ/L
CHOLESTEROL [2]: 69.5 mg/dL
CREATINE PHOSPHOKINASE [2]: 317.17 u/L
CREATININE [2]: 0.2 mg/dL
GLUCOSE [2]: 162.33 mg/dL
LACTATE DEHYDROGENASE [2]: 408.67 u/L
LIPASE [2]: 10.17 u/L
PHOSPHORUS [2]: 11.08 mg/dL
POTASSIUM [2]: 6.36 MEQ/L
SODIUM [2]: 146.07 MEQ/L
TOTAL BILIRUBIN [2]: 0.22 mg/dL
TOTAL PROTEIN [2]: 5.92 G/DL
URIC ACID [2]: 1.47 mg/dL
ABSOLUTE BASOPHIL [3]: 0 CELLS/uL
ABSOLUTE EOSINOPHIL [3]: 127 CELLS/uL
ABSOLUTE LYMPHOCYTE [3]: 14701 CELLS/uL
ABSOLUTE MONOCYTE [3]: 340.67 CELLS/uL
ABSOLUTE SEGMENTED NEUTROPHIL [3]: 1864.67 CELLS/uL
BASOPHIL [3]: 0%
EOSINOPHIL [3]: 1%
ERYTHROCYTE COUNT [3]: 5.8 x10E6/uL
HEMATOCRIT [3]: 35.57%
HEMOGLOBIN [3]: 14.13 G/DL
LEUKOCYTE COUNT [3]: 17.03 x10E3/uL
LYMPHOCYTE [3]: 86.33%
MEAN CORPUSCULAR HEMOGLOBIN [3]: 24.4 pg
MEAN CORPUSCULAR HEMOGLOBIN CONCENTRATION [3]: 39.77 G/DL
MEAN CORPUSCULAR VOLUME [3]: 61.43 fL
MONOCYTE [3]: 2%
NEUTROPHIL [3]: 10.67%
NUCLEATED RED BLOOD CELLS [3]: 0 /100WBC
PLATELET COUNT [3]: 1335 x10E3/uL
ALANINE AMINOTRANSFERASE [3]: 47.67 u/L
ALBUMIN [3]: 3.9 G/DL
ALKALINE PHOSPHATASE [3]: 391.33 u/L
ASPARTATE AMINOTRANSFERASE [3]: 101 u/L
BLOOD UREA NITROGEN [3]: 54.33 mg/dL
CARBON DIOXIDE [3]: 31.33 mmol/L
CHLORIDE [3]: 101.67 MEQ/L
CHOLESTEROL [3]: 88.33 mg/dL
CREATINE PHOSPHOKINASE [3]: 732.33 u/L
CREATININE [3]: 1.13 mg/dL
GLUCOSE [3]: 142 mg/dL
LACTATE DEHYDROGENASE [3]: 354.67 u/L
LIPASE [3]: 10 u/L
PHOSPHORUS [3]: 10.1 mg/dL
POTASSIUM [3]: 6.99 MEQ/L
SODIUM [3]: 146.8 MEQ/L
TOTAL BILIRUBIN [3]: 0.2 mg/dL
TOTAL PROTEIN [3]: 5.93 G/DL
URIC ACID [3]: 0.2 mg/dL
